# Laboratory results taken from patent US8158088B2, “Extractant compositions for co-extracting cesium and strontium, a method of separating cesium and strontium from an aqueous feed, and calixarene compounds” (Battelle Energy Alliance, LLC, priority 2008, dated 2012).
# Where “and” joins values, the source holds several entries; their conditions need not be identical. Equal values may be shown once.
# How the values were obtained:
# Type in all cases: physicochemical
# [1] = Cesium distribution ratio (DCs), equilibrium batch contact of mixed extractant solvent with nitric acid feed; details: for DCs: 1.5 HNO3
# Excerpt: The distribution of cesium and strontium between the first organic phase (the mixed extractant solvent including the dialkyloxycalix[4]arenebenzocrown-6 compound) and the first aqueous phase (aqueous feed) may be determined by conventional techniques. The distribution ratio for strontium (“DSr”) may be calculated as the ratio of organic phase activity to the aqueous phase activity at equilibrium. High values for the DSr indicate that the strontium is present predominantly in the organic phase while low values for the DSr indicate that the strontium is present predominantly in the aqueous phase. Similarly, the distribution ratio for cesium (“DCs”) may be calculated as the ratio of organic phase activity to the aqueous phase activity at equilibrium. High values for the DCs indicate that the cesium is present predominantly in the organic phase while low values for the DCs indicate that the cesium is present predominantly in the aqueous phase.
# Distribution ratios (DM=[M]org/[M]aq) were measured by equilibrium batch contacts between the organic and aqueous phases at an organic-to-aqueous phase ratio (O/A) of unity (O/A=1). All distribution ratio measurements were conducted in a temperature controlled water bath at 25±1° C. The aqueous phase was of the appropriate HNO3 concentration, to which trace quantities (typically, less than 10^−7 M each) of the major radionuclides of interest (^137Cs, ^85Sr, ^154Eu, or ^241Am) were added. The organic and aqueous phases were contacted by vortex mixing for 1 minute. All batch contact experiments were performed at ambient temperature (from approximately 20° C. to approximately 25° C.) unless otherwise noted. Following extraction, the samples were centrifuged for 1 minute and the organic and aqueous phases separated by pipet or centrifugation. The distribution ratios (DSr, or DCs) were calculated as the ratio of the appropriate specific activities in the organic and aqueous phases as determined by γ-ray counting (gamma spectroscopy). The counting time was selected to provide less than approximately 1% statistical uncertainty.
# (MC-8, MC-8B, MC-10, MC-10B, MC-12, or MC-12B), 0.075 M DtBuCH18C6, 0.75 M Cs-7SB modifier, and 0.003 M TOA in ISOPAR® L were evaluated for their respective abilities to simultaneously extract cesium and strontium from the aqueous feed simulant composition described in Table 2. The cesium and strontium distribution ratios of the mixed extraction solvents were compared to those of the FPEX I process solvent. The cesium extraction performance and strontium extraction performance of each of the mixed extractant solvents was determined using the batch contact flowsheet presented in FIG. 1, where “E1,” “E2,” and “E3” refer to three forward extraction acts: a first extraction act, a second extraction act, and a third extraction act, respectively, and “St1” and “St2” refer to two backward extraction acts: a first strip act and a second strip act, respectively. […] The aqueous feed 2 and the mixed extractant solvent 4 were combined in a vessel 6 to conduct the extraction. Two phases were formed during the extraction: the first organic phase and the first aqueous phase, with the cesium and strontium substantially distributed in the first organic phase.
# The cesium and strontium distribution ratios for the mixed extractant solvents 4 were calculated for the first organic phase and are reported in Tables 3 and 4, respectively, as E1, along with the cesium and strontium distribution ratios for the FPEX I process solvent. The cesium and strontium were stripped from the first (and subsequent) organic phase to recover these radionuclides. For the strips or backward extractions, the first (and subsequent) organic phase was contacted with dilute acidic solution 8, which was 0.01 M HNO3. […]
# [2] = Strontium distribution ratio (DSr), equilibrium batch contact of mixed extractant solvent with nitric acid feed; details: for DSr: 1.5 HNO3
# [3] = Solvent stability: cesium distribution ratios as a function of contact time with 1.5 M HNO3
# Experimental: (§1) The stability of the mixed extractant solvents prepared using dialkyloxycalix[4]arenebenzocrown-6 compounds (MC-8, MC-8B, MC-10, MC-10B, MC-12, or MC-12B) relative to BOBCalixC6 in the FPEX I process solvent was determined. Samples were prepared using each of the dialkyloxycalix[4]arenebenzocrown-6 compounds and contacted with 1.5 M HNO3. The samples included 0.007 M of the respective dialkyloxycalix[4]arenebenzo-crown-6 compound (MC-8, MC-8B, MC-10, MC-10B, MC-12, or MC-12B), 0.075 M DtBuCH18C6, 0.75 M Cs-7SB modifier, and 0.003 M TOA in ISOPAR® L. The stability of the dialkyloxycalix[4]arene-benzocrown-6 based solvents was evaluated by measuring the cesium and strontium distribution ratios as a function of contact time. These cesium and strontium distribution ratios for the mixed extractant solvents are presented in Table 9 and Table 10, respectively, along with the cesium and strontium distribution ratios for the FPEX I process solvent. The symbol “-” is used in Tables 9 and 10 to indicate no data was collected.
# (§2) This degradation is likely due to chemical attack or nitration of the BOBCalixC6 in the FPEX I process solvent. […] However, it is difficult to compare the relative extents of degradation. In order to compare the different extractants, the distribution ratio data presented in Tables 9 and 10 were normalized to the values obtained at t=0 days contact. The normalized cesium and strontium distribution ratios for the FPEX I process solvent and the mixed extractant solvents as a function of contact time are presented in FIGS. 2 and 3, respectively.
# [4] = Third phase formation on contact with nitric acid
# [5] = Solvent stability: strontium distribution ratios as a function of contact time with 1.5 M HNO3
# Experimental: as §1, §2
# [6] = [DtBuCH18C6]/[MC-10B] 50/10 mM, 1.5 M Cs-5SB
# [7] = [DtBuCH18C6]/[MC-10B] 60/10 mM, 1.5 M Cs-5SB
# [8] = [DtBuCH18C6]/[MC-10B] 60/15 mM, 1.5 M Cs-5SB
# [9] = [DtBuCH18C6]/[MC-10B] 90/20 mM, 1.5 M Cs-5SB in ISOPAR L, feed 0.004 M cesium nitrate, 0.002 M strontium nitrate
# [10] = first forward extraction, 1.5 M HNO3 feed simulant, 25 °C, 0.007 M calixarene, 0.075 M DtBuCH18C6, 0.75 M Cs-7SB, 0.003 M TOA in ISOPAR L
# [11] = first strip with 0.01 M HNO3, 35 °C, 0.007 M calixarene solvent
# [12] = second forward extraction, 1.5 M HNO3 feed, 25 °C, 0.007 M calixarene solvent
# [13] = second strip with 0.01 M HNO3, 35 °C, 0.007 M calixarene solvent
# [14] = third forward extraction, 1.5 M HNO3 feed, 25 °C, 0.007 M calixarene solvent
# [15] = contact time 0 days with 1.5 M HNO3, 0.007 M calixarene, 0.075 M DtBuCH18C6, 0.75 M Cs-7SB, 0.003 M TOA in ISOPAR L
# [16] = contact time 34 days with 1.5 M HNO3
# [17] = contact time 70 days with 1.5 M HNO3
# [18] = contact time 278 days with 1.5 M HNO3
compound,measurement,setting,value
"CC(C)CCCC(C)CCOc1c2cccc1Cc1cccc3c1OCCOCCOc1ccccc1OCCOCCOc1c(cccc1Cc1cccc(c1OCCC(C)CCCC(C)C)C3)C2 (stereo not shown) [MC-10B, 1,3-alternate-25,27-di(3,7-dimethyloctyl-1-oxy)calix[4]arenebenzocrown-6]",DCs,[1]; [6],2.87 and 2.88
same,DCs,[1]; [7],2.77 and 2.81
same,DCs,[1]; [8],4.48 and 4.37
same,DCs,[1]; [9],6.11 and 6.36
same,"Cesium distribution ratio, contact E1",[1]; [10],3.7
same,"Cesium distribution ratio, contact St1",[1]; [11],0.5
same,"Cesium distribution ratio, contact E2",[1]; [12],1.9
same,"Cesium distribution ratio, contact St2",[1]; [13],0.2
same,"Cesium distribution ratio, contact E3",[1]; [14],1.5
same,DSr,[2]; [6],4.03 and 4.11
same,DSr,[2]; [7],4.83 and 4.90
same,DSr,[2]; [8],4.73 and 4.69
same,DSr,[2]; [9],6.90 and 6.94
same,"Strontium distribution ratio, contact E1",[2]; [10],9.6
same,"Strontium distribution ratio, contact St1",[2]; [11],0.06
same,"Strontium distribution ratio, contact E2",[2]; [12],8.6
same,"Strontium distribution ratio, contact St2",[2]; [13],0.01
same,"Strontium distribution ratio, contact E3",[2]; [14],8.3
same,Cesium distribution ratio as a function of contact time,[3]; [15],3.7
same,Cesium distribution ratio as a function of contact time,[3]; [16],3.0
same,Cesium distribution ratio as a function of contact time,[3]; [17],3.4
same,Cesium distribution ratio as a function of contact time,[3]; [18],2.8
same,third phase formation,"[4]; up to 2 M HNO3, 0.007 M MC-10B, 0.075 M DtBuCH18C6, 0.75 M Cs-7SB in ISOPAR L",no formation of third phases was detected
same,third phase formation,"[4]; varying MC-10B and DtBuCH18C6 concentrations, 1.5 M Cs-5SB in ISOPAR L, 1.5 HNO3",No third phase formation was observed
same,Strontium distribution ratio as a function of contact time,[5]; [15],9.6
same,Strontium distribution ratio as a function of contact time,[5]; [16],8.5
same,Strontium distribution ratio as a function of contact time,[5]; [17],9.5
same,Strontium distribution ratio as a function of contact time,[5]; [18],8.0
